Measured values: ChEMBL document CHEMBL1122339, “Structure-activity studies of configurationally rigid arylprostaglandins” (1983)
Activity calls are given as the source filed them. No cut-off for these calls is given here.

Assays:
Mus musculus [1] = test: In vivo potency relative to PGE-2 =100 for diarrheal activity in conscious mice.; type: functional
Cavia porcellus = organism: Cavia porcellus; test: In vitro potency relative to PGE-2 (=100 for uterine stimulant activity in guinea pig at 0.1-10 ug/mL concentration); type: functional
Mus musculus [2] = test: In vivo potency relative to PGE-2 =100 for diarrheal activity in conscious mice at 0.3-3.0 mg/kg, iv; No effect; type: functional, organism-based

Row | SMILES | Relative potency (Mus musculus [1]) | Relative potency (Cavia porcellus) | Relative potency (Mus musculus [2])
1 | O=C(O)CCC/C=C\C[C@@H]1C(/C=C/[C@@H](O)[C@H]2CCc3ccccc3O2)[C@H](O)C[C@@H]1O (stereo partly drawn) | 310 | 19 | 
2 | O=C(O)CCC/C=C\C[C@H]1C(=O)C[C@@H](O)C1/C=C/[C@H](O)C1Cc2ccccc2C1 (stereo partly drawn) |  | 0.3 | inactive
3 | O=C(O)CCC/C=C\C[C@@H]1C(/C=C/[C@@H](O)C2Cc3ccccc3C2)[C@H](O)C[C@@H]1O (stereo partly drawn) | 50 | 0.3 | 
4 | O=C(O)CCC/C=C\C[C@H]1C(=O)C[C@@H](O)C1/C=C/[C@H](O)[C@@H]1CCc2ccccc2O1 (stereo partly drawn) |  | 7 | 
5 | O=C(O)CCC/C=C\C[C@@H]1C(/C=C/[C@@H](O)[C@@H]2CCc3ccccc3C2)[C@H](O)C[C@@H]1O (stereo partly drawn) | 40 | 18 | 
6 | O=C(O)CCC/C=C\C[C@H]1C(=O)C[C@@H](O)C1/C=C/[C@@H](O)[C@H]1CCc2ccccc2C1 (stereo partly drawn) |  | 44 | inactive
7 | O=C(O)CCC/C=C\C[C@H]1C(=O)C[C@@H](O)C1/C=C/[C@H](O)[C@H]1CCc2ccccc2C1 (stereo partly drawn) |  | 0.1 | inactive
8 | O=C(O)CCC/C=C\C[C@@H]1C(/C=C/[C@@H](O)[C@@H]2Cc3ccccc3O2)[C@H](O)C[C@@H]1O (stereo partly drawn) | 190 | 5 | 
9 | O=C(O)CCC/C=C\C[C@@H]1C(/C=C/[C@@H](O)COc2ccccc2)[C@H](O)C[C@@H]1O (stereo partly drawn) | 150 | 15 | 
10 | O=C(O)CCC/C=C\C[C@H]1C(=O)C[C@@H](O)C1/C=C/[C@H](O)[C@@H]1CCc2ccccc2C1 (stereo partly drawn) |  | 2 | 
11 | O=C(O)CCC/C=C\C[C@@H]1C(/C=C/[C@@H](O)[C@@H]2CCc3ccccc3O2)[C@H](O)C[C@@H]1O (stereo partly drawn) | 1100 | 25 | 
12 | O=C(O)CCC/C=C\C[C@H]1C(=O)C[C@@H](O)C1/C=C/[C@@H](O)[C@H]1CCc2ccccc2O1 (stereo partly drawn) | 270 | 66 | 
13 | O=C(O)CCC/C=C\C[C@H]1C(=O)C[C@@H](O)C1/C=C/[C@@H](O)[C@@H]1Cc2ccccc2O1 (stereo partly drawn) | >250 | 18 | 
14 | O=C(O)CCC/C=C\C[C@H]1C(=O)C[C@@H](O)C1/C=C/[C@@H](O)[C@H]1Cc2ccccc2O1 (stereo partly drawn) |  | 0.1 | inactive
15 | O=C(O)CCC/C=C\C[C@@H]1C(/C=C/[C@H](O)[C@@H]2CCc3ccccc3O2)[C@H](O)C[C@@H]1O (stereo partly drawn) |  | 0.4 | 
16 | O=C(O)CCC/C=C\C[C@@H]1C(/C=C/[C@@H](O)[C@H]2CCc3ccccc3C2)[C@H](O)C[C@@H]1O (stereo partly drawn) | 10 | 2 | 
17 | O=C(O)CCC/C=C\C[C@@H]1C(/C=C/[C@H](O)[C@H]2CCc3ccccc3O2)[C@H](O)C[C@@H]1O (stereo partly drawn) |  | 0.8 | 
18 | O=C(O)CCC/C=C\C[C@H]1C(=O)C[C@@H](O)C1/C=C/[C@@H](O)C1Cc2ccccc2C1 (stereo partly drawn) | 25 | 6 | 
19 | O=C(O)CCC/C=C\C[C@@H]1C(/C=C/[C@H](O)C2Cc3ccccc3C2)[C@H](O)C[C@@H]1O (stereo partly drawn) |  | 0.07 | inactive
20 | O=C(O)CCC/C=C\C[C@H]1C(=O)C[C@@H](O)C1/C=C/[C@@H](O)[C@@H]1CCc2ccccc2O1 (stereo partly drawn) | 730 | 130 | 
21 | O=C(O)CCC/C=C\C[C@@H]1C(/C=C/[C@H](O)[C@@H]2CCc3ccccc3C2)[C@H](O)C[C@@H]1O (stereo partly drawn) |  | 0.1 | 
22 | O=C(O)CCC/C=C\C[C@@H]1C(/C=C/[C@@H](O)[C@H]2Cc3ccccc3O2)[C@H](O)C[C@@H]1O (stereo partly drawn) | 10 | 0.2 | 
23 | O=C(O)CCC/C=C\C[C@H]1C(=O)C[C@@H](O)C1/C=C/[C@H](O)[C@H]1CCc2ccccc2O1 (stereo partly drawn) |  | 3 | 
24 | O=C(O)CCC/C=C\C[C@H]1C(=O)C[C@@H](O)C1/C=C/[C@@H](O)[C@@H]1CCc2ccccc2C1 (stereo partly drawn) | 40 | 36 | 
25 | O=C(O)CCC/C=C\C[C@@H]1C(/C=C/[C@H](O)C2Cc3ccccc3O2)[C@H](O)C[C@@H]1O (stereo partly drawn) | 15 | 0.3 | 
26 | O=C(O)CCC/C=C\C[C@@H]1C(/C=C/[C@H](O)[C@H]2CCc3ccccc3C2)[C@H](O)C[C@@H]1O (stereo partly drawn) |  | 0.1 | 
27 | O=C(O)CCC/C=C\C[C@H]1C(=O)C[C@@H](O)C1/C=C/[C@H](O)C1Cc2ccccc2O1 (stereo partly drawn) | 15 | 19 | 
28 | O=C(O)CCC/C=C\C[C@@H]1C(/C=C/[C@H](O)COc2ccccc2)[C@H](O)C[C@@H]1O (stereo partly drawn) |  | 300 | 
